{"source": "patent US12187720B2", "about": "“Compounds for treatment of cancer” (ONCTERNAL THERAPEUTICS, INC., priority 2010, dated 2025)", "key": {"[1]": {"assay": "Metabolic stability in rat liver microsomes", "format": "in vitro ADME", "conditions": "rat, liver microsomes, pH 7.4; Table 20; read-out: Half life in Rat liver microsome"}, "[2]": {"test_system": "T1, tubulin colchicine binding site", "T1 construct": "[…]", "assay": "[3H]-colchicine competition-binding scintillation proximity assay"}, "[3]": {"assay": "Metabolic stability in human liver microsomes", "conditions": "human, liver microsomes, pH 7.4"}, "[4]": {"test_system": "WM-164 melanoma cells", "assay": "Microtubule imaging (immunofluorescence) in WM-164 melanoma cells", "format": "cell-based, human", "conditions": "18 h", "text": "Primary antibody for tubulin and fluorescence-labeled secondary antibody were subsequently added to the cells. Cell nuclei were stained by DAPI. Whole Cell Stain Green was also applied to all cells. All images were acquired with an Olympus IX71 inverted fluorescence microscope (Olympus Corp., Tokyo, Japan) with overlays from separate images of tubulin (red), nuclei (blue), and whole cells (green)."}, "[5]": {"assay": "Metabolic stability in dog liver microsomes", "format": "in vitro ADME", "conditions": "dog, dog liver microsomes, pH 7.4; Table 20; read-out: Half life in Dog liver microsome"}, "[6]": {"assay": "Metabolic stability in mouse liver microsomes", "format": "in vitro ADME", "conditions": "mouse, liver microsomes, pH 7.4, Table 20; read-out: Half life in Mouse liver microsome"}, "[7]": {"assay": "in vivo", "conditions": "ICR, Sprague-Dawley, beagle, rat, plasma, po"}, "[8]": {"assay": "Pharmacokinetic study in Sprague-Dawley rats", "conditions": "rat, in vivo"}, "[9]": {"test_system": "PC-3", "assay": "SRB cytotoxicity assay, PC-3 prostate cancer cells", "format": "cell-based, human", "conditions": "Homo sapiens, PC-3; Table 16B; read-out: IC50 in PC3", "text": "Cells were stained with SRB solution."}, "[10]": {"assay": "Pharmacokinetic study in beagle dogs", "conditions": "dog, in vivo"}, "[11]": {"test_system": "Porcine brain tubulin", "assay": "In vitro microtubule polymerization assay (porcine brain tubulin)", "format": "biochemical", "conditions": "5 μM, at 15 min"}, "[12]": {"assay": "Permeability (drug-like properties)", "conditions": "mean from duplicate studies"}, "[13]": {"test_system": "PC-3/TxR tumors", "conditions": "PC-3/TxR xenograft, b.i.d × 5/w, end point day 26"}, "[14]": {"test_system": "glioma cells", "assay": "SRB cytotoxicity assay, glioma cells", "conditions": "read-out: potency in glioma cells"}, "[15]": {"test_system": "tubulin (colchicine, vinblastine and paclitaxel binding sites)", "assay": "Mass spectrometry competitive binding assay on tubulin", "text": "MS competition binding assay. […] Each reaction was run in triplicate."}, "[16]": {"assay": "Pharmacokinetic study in ICR mice", "conditions": "mouse, in vivo"}, "[17]": {"assay": "Rotarod test (in vivo neurotoxicity) in ICR mice", "parameters": "species or system mouse", "conditions": "1h 5 or 15 mg/kg, vinblastine 0.5 mg/kg, i.p. daily", "procedure": "Rotarod test. […] The rotarod test was performed twice a week."}, "[18]": {"test_system": "PC-3 xenografts", "text": "In vivo antitumor activity [tumor growth inhibition (% T/C), tumor growth delay (T-C value), and tumor cell kill (total log cell kill)]."}, "[19]": {"test_system": "BCRP", "assay": "in vitro", "conditions": "human"}, "[20]": {"test_system": "NCI/ADR-RES", "assay": "SRB cytotoxicity assay, P-gp over-expressing NCI/ADR-RES cells", "format": "cell-based, human", "conditions": "NCI/ADR-RES versus OVCAR-8"}}, "note": "Read-outs that look alike come from different tables or passages of the source.", "data": [{"smiles": "COc1cc(C(=O)c2c[nH]c(-c3ccc(C)cc3)n2)cc(OC)c1OC", "note": "[12da, (2-(p-tolyl)-1H-imidazol-4-yl)(3,4,5-trimethoxyphenyl)methanone]", "values": [{"measurement": "half-life at 0.5 μM", "setting": "[1]", "value": 28, "unit": "min"}, {"measurement": "colchicine site binding in words", "setting": "[2]", "value": "highest binding affinity"}, {"measurement": "half-life at 0.5 μM", "setting": "[3]", "value": 23, "unit": "min"}, {"measurement": "effect on microtubules", "setting": "[4]", "value": "microtubule fragmentation"}, {"measurement": "half-life at 0.5 μM", "setting": "[5]", "value": 17, "unit": "min"}, {"measurement": "half-life at 0.5 μM", "setting": "[6]", "value": 8, "unit": "min"}]}, {"smiles": "COc1cc(C(=O)c2csc(Nc3ccc4[nH]ccc4c3)n2)cc(OC)c1OC", "note": "[compound 55, (2-(1H-INDOL-5-YLAMINO)THIAZOL-4-YL)(3,4,5-TRIMETHOXYPHENYL)METHANONE]", "values": [{"measurement": "bioavailability", "setting": "[7]", "value": "24 to 36", "unit": "%"}, {"measurement": "clearance in words, rats", "setting": "[8]", "value": "low clearance"}, {"measurement": "IC50", "setting": "[9]", "value": 28, "unit": "nM"}, {"measurement": "clearance in words, dogs", "setting": "[10]", "value": "moderate clearance"}, {"measurement": "inhibition of tubulin polymerization", "setting": "[11]", "value": 40, "unit": "%"}, {"measurement": "Papp(A→B) in CaCO-2 assay", "setting": "[12]", "value": "99 10^−6 cm/s"}, {"measurement": "Tumor size End", "setting": "[13]; PO 10 mpk", "value": "1152 ± 433", "unit": "mm^3"}, {"measurement": "Tumor size End", "setting": "[13]; PO 30 mpk", "value": "101 ± 19", "unit": "mm^3"}, {"measurement": "IC50", "setting": "[14]", "value": 22, "unit": "nM"}, {"measurement": "competition for tubulin binding sites", "setting": "[15]", "value": "competed effectively with colchicine"}, {"measurement": "clearance in words, mice", "setting": "[16]", "value": "moderate clearance"}]}, {"smiles": "CC[C@]1(O)C[C@@H]2CN(CCc3c([nH]c4ccccc34)[C@@](C(=O)OC)(c3cc4c(cc3OC)N(C)[C@H]3[C@@](O)(C(=O)OC)[C@H](OC(C)=O)[C@]5(CC)C=CCN6CC[C@]43[C@@H]65)C2)C1", "note": "[vinblastine, reference compound]", "values": [{"measurement": "competition for tubulin binding sites", "setting": "[15]", "value": "did not inhibit the colchicine-tubulin binding"}, {"measurement": "time on the rotating rod versus vehicle group", "setting": "[17]", "value": "gradually reduced the time"}, {"measurement": "% T/C", "setting": "[18]; 0.5 mg/kg q2d, day 22", "value": 29, "unit": "%"}, {"measurement": "% T/C", "setting": "[18]; Prostate (PC-3) xenograft, 0.5 mg/kg, q2d", "value": 29, "unit": "%"}, {"measurement": "IC50", "setting": "[19]", "value": "25 ± 1", "unit": "nM"}]}, {"smiles": "COc1cc(C(=NC#N)c2csc(-c3ccccc3)n2)cc(OC)c1OC", "note": "[2j, N-((2-phenylthiazol-4-yl)(3,4,5-trimethoxyphenyl)methylene)cyanamide]", "values": [{"measurement": "half-life at 0.5 μM", "setting": "[3]", "value": "< 5", "unit": "min"}, {"measurement": "Resistance factor", "setting": "[20]", "value": 0.4}]}]}
